Measured values reported in patent US20230102554A1 (GB002, INC., priority 2019, published 2023).

Legend:
[1] = molecular target: T1, Human PDGFRα, cytoplasmic domain (GST-PDGFRα) (Homo sapiens, UniProt P16234); test: Human PDGFRα biochemical inhibition assay (off-chip Mobility Shift Assay)
T1 construct: made in house

[2] = molecular target: T2, Human PDGFRβ, cytoplasmic domain (GST-PDGFRβ) (Homo sapiens, UniProt P09619); test: Human PDGFRβ biochemical inhibition assay (off-chip Mobility Shift Assay)
T2 construct: made in house
T2 sequence (P09619 with tags, fused parts or gaps): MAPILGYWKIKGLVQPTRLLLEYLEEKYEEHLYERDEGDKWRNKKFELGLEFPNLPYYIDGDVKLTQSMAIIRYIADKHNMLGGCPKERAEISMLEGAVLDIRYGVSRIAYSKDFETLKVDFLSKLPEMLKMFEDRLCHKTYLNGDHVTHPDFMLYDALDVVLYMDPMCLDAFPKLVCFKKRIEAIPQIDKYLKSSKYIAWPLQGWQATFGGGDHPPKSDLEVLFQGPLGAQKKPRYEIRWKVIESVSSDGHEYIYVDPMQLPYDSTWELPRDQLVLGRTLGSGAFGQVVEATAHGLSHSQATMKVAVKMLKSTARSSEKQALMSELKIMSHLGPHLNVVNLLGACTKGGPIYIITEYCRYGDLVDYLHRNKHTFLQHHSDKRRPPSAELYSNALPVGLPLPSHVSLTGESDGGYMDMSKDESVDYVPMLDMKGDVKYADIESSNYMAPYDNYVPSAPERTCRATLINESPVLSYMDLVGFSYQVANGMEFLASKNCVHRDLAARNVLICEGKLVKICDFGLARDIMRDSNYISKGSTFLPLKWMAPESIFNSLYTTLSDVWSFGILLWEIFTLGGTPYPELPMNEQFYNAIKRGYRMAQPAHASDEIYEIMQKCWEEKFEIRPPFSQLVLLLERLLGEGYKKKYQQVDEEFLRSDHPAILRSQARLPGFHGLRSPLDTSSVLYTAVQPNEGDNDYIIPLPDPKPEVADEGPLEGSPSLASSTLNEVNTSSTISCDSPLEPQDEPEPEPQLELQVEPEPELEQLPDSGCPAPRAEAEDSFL
Summary of the method: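 GST-tagged cytoplasmic domain (aa 557-1106) from baculovirus was incubated 1 h at room temperature with compound, CSKtide, ATP at Km and Mg²⁺ in HEPES buffer, pH 7.5. Phosphorylated and unphosphorylated peptide were separated by off-chip mobility shift, and the product ratio P/(P+S) gave percent inhibition.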

T1 sequence (P16234 550-1089 T674I): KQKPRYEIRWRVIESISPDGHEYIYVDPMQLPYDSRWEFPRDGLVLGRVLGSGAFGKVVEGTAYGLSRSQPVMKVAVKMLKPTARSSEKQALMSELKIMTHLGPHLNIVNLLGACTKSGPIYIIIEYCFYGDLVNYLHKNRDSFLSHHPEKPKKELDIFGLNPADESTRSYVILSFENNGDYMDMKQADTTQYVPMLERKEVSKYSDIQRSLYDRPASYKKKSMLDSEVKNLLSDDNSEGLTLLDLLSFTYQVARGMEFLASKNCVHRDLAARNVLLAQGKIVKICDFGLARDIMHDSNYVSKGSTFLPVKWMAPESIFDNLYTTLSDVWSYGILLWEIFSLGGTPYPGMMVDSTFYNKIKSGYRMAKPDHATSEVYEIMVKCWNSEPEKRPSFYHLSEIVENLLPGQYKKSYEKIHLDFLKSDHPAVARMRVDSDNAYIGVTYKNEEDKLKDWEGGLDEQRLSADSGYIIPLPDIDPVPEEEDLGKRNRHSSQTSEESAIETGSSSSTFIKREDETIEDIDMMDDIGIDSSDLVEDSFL

SMILES	IC50 [1] [nM]	IC50 [2] [nM]
CCn1cc2ncc(N[C@@H](C)c3cccc(NC(=O)c4cnc(OCC5CC5)c(C)c4)c3)nc2n1 [Compound 315, (S)-6-(cyclopropylmethoxy)-N-(3-(1-((2-ethyl-2H-pyrazolo[3,4-b]pyrazin-6-yl)amino)ethyl)phenyl)-5-methylnicotinamide]	< 300	< 300
Cc1n[nH]c2ncc(N[C@@H](C)c3cccc(NC(=O)c4cncc(Cl)c4)c3)nc12 [Compound 533, (S)-5-chloro-N-(3-(1-((3-methyl-1H-pyrazolo[3,4-b]pyrazin-5-yl)amino)ethyl)phenyl)nicotinamide]	< 300	< 300
CCn1cc2ncc(N[C@@H](C)c3cccc(NC(=O)c4ccc(CN5CC6CC6C5)c(C)c4)c3)nc2n1 (some centres unmarked) [Compound 477, 4-((3-azabicyclo[3.1.0]hexan-3-yl)methyl)-N-(3-((5)-1-((2-ethyl-2H-pyrazolo[3,4-b]pyrazin-6-yl)amino)ethyl)phenyl)-3-methylbenzamide]	< 300	< 300
COC(=O)c1ccc(C(=O)Nc2cccc([C@H](C)Nc3cnc4cnn(C)c4n3)c2)cc1Br [Compound 197, methyl (S)-2-bromo-4-((3-(1-((1-methyl-1H-pyrazolo[3,4-b]pyrazin-6-yl)amino)ethyl)phenyl)carbamoyl)benzoate]	< 300	< 300
C[C@H](Nc1cnc2cnn(C)c2n1)c1cccc(NC(=O)c2cncc(Cl)c2)c1 [Compound 109, (S)-5-chloro-N-(3-(1-((1-methyl-1H-pyrazolo[3,4-b]pyrazin-6-yl)amino)ethyl)phenyl)nicotinamide]	< 300	< 300
CCn1cc2ncc(N[C@@H](C)c3cc(NC(=O)c4ccc(F)c(Cl)c4)ccc3C)nc2n1 [Compound 507, (S)-3-chloro-N-(3-(1-((2-ethyl-2H-pyrazolo[3,4-b]pyrazin-6-yl)amino)ethyl)-4-methylphenyl)-4-fluorobenzamide]	< 300	< 300
CCn1cc2ncc(N[C@@H](C)c3cccc(NC(=O)c4ccc(CN5CCCC6(COC6)C5)c(C)c4)c3)nc2n1 [Compound 481, (S)-4-((2-oxa-6-azaspiro[3.5]nonan-6-yl)methyl)-N-(3-(1-((2-ethyl-2H-pyrazolo[3,4-b]pyrazin-6-yl)amino)ethyl)phenyl)-3-methylbenzamide]	< 300	< 300
Cc1cncc(C(=O)Nc2cccc([C@H](C)Nc3cnc4[nH]cc(-c5cccnc5)c4n3)c2)c1 [Compound 591, (S)-5-methyl-N-(3-(1-((7-(pyridin-3-yl)-5H-pyrrolo[2,3-b]pyrazin-2-yl)amino)ethyl)phenyl)nicotinamide]	< 300	< 300
Cc1cncc(C(=O)Nc2cccc([C@H](C)Nc3cnc4ccccc4c3)c2)c1 [Compound 2, (S)-5-methyl-N-(3-(1-(quinolin-3-ylamino)ethyl)phenyl)nicotinamide]	< 300	300 to 1000
CCn1cc2ncc(N[C@@H](C)c3cc(NC(=O)c4cncc(C)c4)ccc3C)nc2n1 [Compound 510, (S)-N-(3-(1-((2-ethyl-2H-pyrazolo[3,4-b]pyrazin-6-yl)amino)ethyl)-4-methylphenyl)-5-methylnicotinamide]	< 300	< 300
C[C@H](Nc1cnc2[nH]ccc2n1)c1cccc(NC(=O)c2cnn(C3CCC3)c2)c1 [Compound 598, (S)-N-(3-(1-((5H-pyrrolo[2,3-b]pyrazin-2-yl)amino)ethyl)phenyl)-1-cyclobutyl-1H-pyrazole-4-carboxamide]	< 300	< 300
C[C@H](Nc1cnc2cnn(C)c2n1)c1cccc(NC(=O)c2cnn(CCF)c2)c1 [Compound 154, (S)-1-(2-fluoroethyl)-N-(3-(1-((1-methyl-1H-pyrazolo[3,4-b]pyrazin-6-yl)amino)ethyl)phenyl)-1H-pyrazole-4-carboxamide]	< 300	< 300
C[C@H](Nc1cnc2cnn(C)c2n1)c1cc(NC(=O)c2cnn(C3CCC3)c2)ccc1F [Compound 213, (S)-1-cyclobutyl-N-(4-fluoro-3-(1-((1-methyl-1H-pyrazolo[3,4-b]pyrazin-6-yl)amino)ethyl)phenyl)-1H-pyrazole-4-carboxamide]	< 300	< 300
CCn1cc2ncc(N[C@@H](C)c3cccc(NC(=O)c4cncc(C)c4)c3)nc2n1 [Compound 9, (S)—N-(3-(1-((2-ethyl-2H-pyrazolo[3,4-b]pyrazin-6-yl)amino)ethyl)phenyl)-5-methylnicotinamide]	< 300	300 to 1000
CCc1cncc(C(=O)Nc2cccc([C@H](C)Nc3cnc4cn[nH]c4n3)c2)c1 [Compound 91, (S)-N-(3-(1-((1H-pyrazolo[3,4-b]pyrazin-6-yl)amino)ethyl)phenyl)-5-ethylnicotinamide]	< 300	< 300

Second part, the compound after the results:

IC50 [1] [nM]	IC50 [2] [nM]	SMILES
< 300	≥ 1000	CCn1cc2ncc(N[C@@H](C)c3cccc(NC(=O)Nc4cnn(CC5CC5)c4)c3)nc2n1 [Compound 741, (S)-1-(1-(cyclopropylmethyl)-1H-pyrazol-4-yl)-3-(3-(1-((2-ethyl-2H-pyrazolo[3,4-b]pyrazin-6-yl)amino)ethyl)phenyl)urea]
< 300	300 to 1000	CCn1cc2ncc(N[C@@H](C)c3cc(NC(=O)Cc4cncc(C(F)(F)F)c4)ccc3F)nc2n1 [Compound 685, (S)-N-(3-(1-((2-ethyl-2H-pyrazolo[3,4-b]pyrazin-6-yl)amino)ethyl)-4-fluorophenyl)-2-(5-(trifluoromethyl)pyridin-3-yl) acetamide]
< 300	300 to 1000	C[C@H](Nc1cnc2cnn(C)c2n1)c1cccc(NC(=O)c2cncc(O)c2)c1 [Compound 241, (S)-5-hydroxy-N-(3-(1-((1-methyl-1H-pyrazolo[3,4-b]pyrazin-6-yl)amino)ethyl)phenyl)nicotinamide]
< 300	< 300	Cc1cncc(C(=O)Nc2cccc([C@H](C)Nc3cnc4[nH]ncc4n3)c2)c1 [Compound 529, (S)-N-(3-(1-((1H-pyrazolo[3,4-b]pyrazin-5-yl)amino)ethyl)phenyl)-5-methylnicotinamide]
< 300	≥ 1000	COc1ccc(Cn2ccc3ncc(N[C@@H](C)c4cccc(NC(=O)c5cncc(C)c5)c4)nc32)cc1OC [Compound 88, (S)-N-(3-(1-((5-(3,4-dimethoxybenzyl)-5H-pyrrolo [2,3-b]pyrazin-3-yl)amino)ethyl)phenyl)-5-methylnicotinamide]
< 300	< 300	Cc1cncc(C(=O)Nc2cccc([C@H](C)Nc3cnc4cccc(F)c4c3)c2)c1 [Compound 29, (S)-N-(3-(1-((5-fluoroquinolin-3-yl)amino)ethyl)phenyl)-5-methylnicotinamide]
< 300	< 300	Cc1cncc(C(=O)Nc2ccc(F)c([C@H](C)Nc3cnc4cnn(C)c4n3)c2)c1 [Compound 172]
< 300	300 to 1000	Cc1cncc(C(=O)Nc2cccc([C@H](C)Nc3cncc4c3ccn4-c3cnn(C)c3)c2)c1 [Compound 748, (S)-5-methyl-N-(3-(1-((1-(1-methyl-1H-pyrazol-4-yl)-1H-pyrrolo[2,3-c]pyridin-4-yl)amino)ethyl)phenyl) nicotinamide]
< 300	< 300	CCn1cc2ncc(N[C@@H](C)c3cc(NC(=O)Cc4ccc(Cl)c(C)n4)ccc3C)nc2n1 [Compound 670, (S)-2-(5-chloro-6-methylpyridin-2-yl)-N-(3-(1-((2-ethyl-2H-pyrazolo[3,4-b]pyrazin-6-yl)amino)ethyl)-4-methylphenyl)acetamide]
< 300	300 to 1000	CCn1cc2ncc(N[C@@H](C)c3cc(NC(=O)Cc4ccc(OC)cn4)ccc3C)nc2n1 [Compound 698, (S)-N-(3-(1-((2-ethyl-2H-pyrazolo[3,4-b]pyrazin-6-yl)amino)ethyl)-4-methylphenyl)-2-(5-methoxypyridin-2-yl) acetamide]
< 300	300 to 1000	CCn1cc2ncc(N[C@@H](C)c3cccc(NC(=O)Cc4cc(F)ccc4F)c3)nc2n1 [Compound 640, (S)-2-(2,5-difluorophenyl)-N-(3-(1-((2-ethyl-2H-pyrazolo[3,4-b]pyrazin-6-yl)amino)ethyl)phenyl)acetamide]
< 300	< 300	CCn1cc2ncc(N[C@@H](C)c3cccc(NC(=O)c4cnc(N(C)C)s4)c3)nc2n1 [Compound 340, (S)-2-(dimethylamino)-N-(3-(1-((2-ethyl-2H-pyrazolo[3,4-b]pyrazin-6-yl)amino)ethyl)phenyl)thiazole-5-carboxamide]
< 300	≥ 1000	CCn1cc2ncc(N[C@@H](C)c3cc(NC(=O)Cc4ccc(C(F)(F)F)cn4)ccc3F)nc2n1 [Compound 654, (S)-N-(3-(1-((2-ethyl-2H-pyrazolo[3,4-b]pyrazin-6-yl)amino)ethyl)-4-fluorophenyl)-2-(5-(trifluoromethyl)pyridin-2-yl) acetamide]
< 300	< 300	CCn1cc2ncc(N[C@@H](C)c3cccc(NC(=O)c4cnc(C5CC5)c(C)c4)c3)nc2n1 [Compound 321, (S)-6-cyclopropyl-N-(3-(1-((2-ethyl-2H-pyrazolo[3,4-b]pyrazin-6-yl)amino)ethyl)phenyl)-5-methylnicotinamide]
< 300	< 300	C[C@H](Nc1cnc2cnn(C)c2n1)c1cccc(NC(=O)c2ccc3c(c2)SCCN3)c1 [Compound 79, (S)-N-(3-(1-((1-methyl-1H-pyrazolo[3,4-d]pyrazin-6-yl)amino)ethyl)phenyl)-3,4-dihydro-2H-benzo[b] [1,4]thiazine-7-carboxamide]
< 300	< 300	CCn1cc2ncc(N[C@@H](C)c3cccc(NC(=O)c4cnn(C(C)C)c4)c3)nc2n1 [Compound 301, (S)-N-(3-(1-((2-ethyl-2H-pyrazolo[3,4-b]pyrazin-6-yl)amino)ethyl)phenyl)-1-isopropyl-1H-pyrazole-4-carboxamide]
